Laboratory results reported in patent publication US9469616B2, “Cyclic compounds and methods of making and using the same” (Cellceutix Corporation, priority 2011, dated 2016).
In brackets after ≈: the same amount, converted by molar mass. Several values for one entry are separate records, joined by “and”; a condition that tells them apart may be missing. Identical values can stand only once.

Key:
Staphylococcus aureus = assay: Antimicrobial activity (MIC) of aryl compounds (Table 2); format: cell-based
Source text: (§1) A new series of aryl compounds was designed to evaluate the effect of charge and aromatic group hydrophobicity on the biological activity while still maintaining an amphiphilic topology. Four and six cationic charges were investigated, and three different central rings were used to tune the overall hydrophobicity: benzene, naphthalene, and phenylbenzene. The hydrophobicities of the aryl compounds were quantified using reversed-phase HPLC retention times (Rt). The antimicrobial activities (expressed as minimum inhibitory concentration (MIC)) of these compounds were tested against four pathogens, including both Gram-negative and Gram-positive bacteria, and their hemolysis (evaluated in terms of HC50, the lowest concentration that causes 50% hemolysis of red blood cells (RBCs)) was tested against human RBCs.

Escherichia coli = assay: as above; format: cell-based
Source text: as §1

E. faecalis (29212) = assay: MIC assay (Table 1); format: cell-based; conditions: Enterococcus faecalis, isolate 29212
Experimental: (§2) The compounds are screened for antimicrobial activity against a number of clinically relevant pathogens. Minimum Inhibitory Concentrations (MIC) of each of the compounds are determined using standard procedures for clinical ocular isolates of Ciprofloxacin Susceptible (CS) S. aureus (CSSA), Ciprofloxacin Resistant (CR) S. aureus (CRSA), CS S. epidermidis (CSSE), CR S. epidermidis (CRSE), St. pneumoniae (SP), St. viridans group (SV), Moraxella Species (MS) (including Moraxella catarrhalis), H. influenzae (HI), P. aeruginosa (PA), Serratia marcescens (SM), S. aureus fluoroquinolone-susceptible, S. aureus fluoroquinolone-resistant, S. epidermidis (Coagulase-negative Staphylococcus) fluoroquinolone-susceptible, S. epidermidis (Coagulase-negative Staphylococcus) fluoroquinolone-resistant, and Serratia marcescens.
(§3) On the day of testing, a 640 μg/m (1280 μg/m for Serratia marcescens and Pseudomonas aeruginosa) concentration is prepared from a 1% stock solution in 0.01% acetic acid, 0.2% BSA in polypropylene tubes.
(§4) Ten μl of diluted 10× test agents is added to each well of one row of the 96 well polypropylene plates from column 2 to column 12 (column 1 is a control for bacteria alone, with no peptide). […] The same peptide is in each of the 8 rows. One plate contains dilutions of one test agent and 8 bacterial isolates.
(§5) Ninety μl of the bacterial suspensions is dispensed in each well from column 1 to column 12. Each bacterial isolate is placed in one row of a 96 well polypropylene plate containing the test agents. The plates are placed on shaker at 15 minutes at room temperature, and then incubated at 37° C. overnight. MICs are determined visually as the lowest concentration of drug that inhibits visible bacterial growth.
(§6) Data is expressed as MIC50 in μg/ml. The bacterial isolates were as follows: E. coli (25922); S. aureus (27660); E. faecalis (29212); P. aeruginosa (10145); and K. pneumoniae (13883).

K. pneumoniae (13883) = assay: MIC assay (Table 1); format: cell-based; conditions: Klebsiella pneumoniae, isolate 13883, read-out: MIC50 K. Pnuemnoiae
Experimental: as §2, §3, §4, §5, §6

RAW 264.7 cells = assay: Cytokine production in RAW 264.7 cells (ELISA); format: cell-based, murine

SMILES: NCCCOc1cc(-c2ccc3ccc(-c4cc(OCCCN)c(OCCCN)c(OCCCN)c4)cc3c2)cc(OCCCN)c1OCCCN [Compound 116]
- Selectivity (HC50/MIC) S. aureus (Staphylococcus aureus; HC50/MIC): 200 and 209.6
- selectivity, times higher than the selectivity of MSI-78 (Staphylococcus aureus; S. aureus and E. coli, relative to MSI-78): ~20 times
- MIC (Staphylococcus aureus; Staphylococcus aureus, Table 2, read-out: MIC S. aureus): 3.13 µg/mL (≈ 4.35 µM)
- MIC S. aureus (Staphylococcus aureus; Table 2): ≈ 3 μg/ml
- MIC (Escherichia coli; Escherichia coli, Table 2): 3.13 µg/mL (≈ 4.35 µM)
- Selectivity (HC50/MIC) E. coli (Escherichia coli; HC50/MIC): 200 and 209.6
- MIC E. coli (Escherichia coli; Table 2): ≈ 3 μg/ml
- MIC50 (E. faecalis (29212)): 25 µg/mL (≈ 34.8 µM)
- MIC50 (K. pneumoniae (13883)): 25 µg/mL (≈ 34.8 µM)
- LPS-induced TNF production (RAW 264.7 cells; 5.0 μg/mL preincubation 1 hour, LPS 100 ng/mL 18 hours, FIG. 1B): increased
- LPS-induced IL-6 production (RAW 264.7 cells; 5.0 μg/mL preincubation 1 hour, LPS 100 ng/mL 18 hours, FIG. 1C): increased
- LPS-induced IL-10 production (RAW 264.7 cells; 5.0 μg/mL preincubation 1 hour, LPS 100 ng/mL 18 hours, FIG. 1D): inhibited the production of the anti-inflammatory cytokine IL 10 to background levels
- TNF production (RAW 264.7 cells; 5.0 μg/mL, without LPS, FIG. 1A): induced TNF production
- LPS-induced TNF production with externally added rIL-10 (RAW 264.7 cells; preincubated with mouse rIL-10 50 ng/mL, 5.0 μg/mL compound, LPS 100 ng/mL, FIG. 2): abrogation of Compound 116's capacity to enhance TNF production
- TNF level with externally added rIL-10 (RAW 264.7 cells; preincubated with mouse rIL-10 50 ng/mL, 5.0 μg/mL compound, without LPS, FIG. 2): only a slight decrease in the overall TNF level
